For five compounds, refractive index, viscosity and mass density results are on record in the NIST ThermoML archive (doi:10.1021/je300938w).

Data set [1] is described as follows: refractive index (Na D-line) (dimensionless). The settings on record: 101.33 kPa, Liquid, Standard Abbe refractometry.
For data set [2] the following is noted: 101.33 kPa, Liquid; for viscosity: Concentric cylinders viscometry; for mass density: Vibrating tube method.

Each structure is given as a SMILES string. Numbers after ± are expanded uncertainties.

On to `OCCNCCO` [diethanolamine], for which the refractive index in data set [1] (298.15 K) is 1.4764 ± 0.00073. In addition, in data set [2] (298.15 K), the viscosity is reported as 566.57 ± 46 mPa·s and the mass density is 1093.22 ± 0.17 kg/m3.

On to `CC(O)CN` (centres undefined) [1-amino-2-propanol], for which the refractive index in data set [1] (298.15 K) stood at 1.4459 ± 0.00082. In data set [2] (298.15 K), the viscosity is recorded as 23.26 ± 0.41 mPa·s and the mass density was determined as 956.644 ± 1 kg/m3.

With `CC(O)CNCC(C)O` (centres undefined) [N-(2-hydroxypropyl)-2-hydroxy-1-propanamine], the refractive index was determined as 1.45517 ± 0.00068 in data set [1] (313.15 K) and 1.45139 ± 0.00068 in data set [1] (323.15 K). For the same compound, the viscosity in data set [2] (313.15 K) is 308.54 ± 11 mPa·s; in data set [2] (323.15 K), 123.21 ± 4.4 mPa·s. The results for the mass density in data set [2] (313.15 K) and in data set [2] (323.15 K) were 992.46 ± 1.1 kg/m3 and 984.835 ± 1.1 kg/m3, respectively.

For `O` [water], the values for the refractive index in data set [1] (293.15 K) and in data set [1] (298.15 K) were 1.33304 ± 0.00042 and 1.33249 ± 0.00042, respectively. The viscosity was 1.019 ± 0.01 mPa·s in data set [2] (293.15 K) and 0.9123 ± 0.0097 mPa·s in data set [2] (298.15 K).

`CC(O)CN(CC(C)O)CC(C)O` (centres undefined) [triisopropanolamine]: in data set [1] (323.15 K), the refractive index came to 1.45233 ± 0.0012. In addition, in data set [2] (323.15 K), the viscosity was 132.3 ± 5.5 mPa·s and the mass density is reported as 990.616 ± 6.8 kg/m3.

A word on the refractive index: it is the speed of light in vacuum divided by its phase velocity in the sample. For orientation: viscosity means the internal friction of a fluid under shear. By mass density is commonly meant the mass of a sample divided by its volume.
